Consider 1 molecule from patent US6943164B2, “Pharmaceutical solutions of levosimendan” (Orion Corporation, priority 1999, dated 2005).

Each structure is given as a SMILES string. Values after ≈ are worked out from the molar mass of the structure shown.

Series [1] in a line: pKa of levosimendan. Type of series: physicochemical. On the procedure:
(§1) At room temperature the solubility of levosimendan in phosphate buffer is 0.4 mg/ml (pH 7.4), 0.03 mg/ml (pH 6) and 0.02 mg/ml (pH 2). Thus, the water solubility of levosimendan decreases quite sharply when pH is lowered below neutral. […] Such solutions are chemically and physically stable over an extended period of time and, therefore, they are particularly suitable for pharmaceutical use.

A short description of series [2]: Solubility of levosimendan in phosphate buffer at room temperature. Format: physicochemical. To be noted: aqueous buffer. On the procedure:
as §1

As usually defined, the pKa is the negative logarithm of the acid dissociation constant. High values mean a weaker acid or stronger base, low ones a stronger acid or weaker base. As usually defined, the solubility is how much of the substance goes into solution per volume. In turn, `CC1CC(=O)NN=C1c1ccc(NN=C(C#N)C#N)cc1` (single isomer, unassigned; (-)) [levosimendan, (−)-[[4-(1,4,5,6-tetrahydro-4-methyl-6-oxo-3-pyridazinyl)phenyl]hydrazono]propanedinitrile] yielded a pKa in series [1] of 6.26. The figures for the solubility in series [2] (pH 2), in series [2] (pH 6) and in series [2] (pH 7.4) were 20 µg/mL (≈ 71.4 µM), 30 µg/mL (≈ 107 µM) and 400 µg/mL (≈ 1430 µM), respectively.
